Here are results for 20 compounds from patent US20240158412A1 (Faxian Therapeutics, LLC, priority 2021, published 2024).

Molecules are shown by their SMILES.
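Further: fluorescence intensity readout of USP7 enzymatic activity, reaction incubated 90 min at room temperature.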

USP7, sequence (Q93009 whole entry): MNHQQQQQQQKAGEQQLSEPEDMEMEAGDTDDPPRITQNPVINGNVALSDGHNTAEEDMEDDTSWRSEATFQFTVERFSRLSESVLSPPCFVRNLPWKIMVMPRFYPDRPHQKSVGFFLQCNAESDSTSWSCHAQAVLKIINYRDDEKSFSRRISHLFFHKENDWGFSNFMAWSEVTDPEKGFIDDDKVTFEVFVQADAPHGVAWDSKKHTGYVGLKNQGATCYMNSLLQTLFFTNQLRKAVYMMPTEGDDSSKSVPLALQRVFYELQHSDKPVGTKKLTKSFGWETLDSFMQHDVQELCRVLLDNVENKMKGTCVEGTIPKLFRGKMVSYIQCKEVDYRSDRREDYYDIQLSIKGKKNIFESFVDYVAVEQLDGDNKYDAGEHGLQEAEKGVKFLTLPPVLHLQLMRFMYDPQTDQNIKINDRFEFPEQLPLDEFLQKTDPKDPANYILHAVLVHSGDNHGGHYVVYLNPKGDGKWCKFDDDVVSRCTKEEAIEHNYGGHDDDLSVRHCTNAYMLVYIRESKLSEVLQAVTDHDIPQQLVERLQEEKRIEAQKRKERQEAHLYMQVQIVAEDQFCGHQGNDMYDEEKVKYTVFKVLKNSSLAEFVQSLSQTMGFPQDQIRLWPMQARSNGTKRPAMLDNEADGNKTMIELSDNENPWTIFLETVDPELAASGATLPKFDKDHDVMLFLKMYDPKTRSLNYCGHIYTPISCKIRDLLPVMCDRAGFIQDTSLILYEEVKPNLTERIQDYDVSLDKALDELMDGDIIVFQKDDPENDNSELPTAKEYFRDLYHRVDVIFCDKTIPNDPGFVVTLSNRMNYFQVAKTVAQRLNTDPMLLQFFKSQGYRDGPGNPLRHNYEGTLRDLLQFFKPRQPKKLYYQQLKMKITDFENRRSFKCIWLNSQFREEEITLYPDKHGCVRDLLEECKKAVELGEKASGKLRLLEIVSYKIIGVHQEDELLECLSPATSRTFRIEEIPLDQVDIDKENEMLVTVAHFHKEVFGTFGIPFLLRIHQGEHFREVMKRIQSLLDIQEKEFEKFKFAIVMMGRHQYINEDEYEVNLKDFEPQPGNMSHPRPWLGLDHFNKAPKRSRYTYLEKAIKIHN

The test addresses USP7 (Homo sapiens, UniProt Q93009). As to the kind of experiment: biochemical.
As a reminder, the IC50 is the concentration that inhibits the measured activity by half. Higher therefore signals weaker potency in that assay. Turning to `CC(C)(C)c1cnn(Cc2cc3nccc(-c4cc(Cl)cc5c4N(C4CNC(CO)(CO)C4)CCO5)c3s2)c(=O)c1` (stereo in doubt) [Example 213b, (S)-2-((7-(4-(5,5-bis(hydroxymethyl)pyrrolidin-3-yl)-7-chloro-3,4-dihydro-2H-benzo[b][1,4]oxazin-5-yl)thieno[3,2-b]pyridin-2-yl)methyl)-5-(tert-butyl)pyridazin-3(2H)-one], the IC50 was less than 10 nM.

Take `CCn1c(N(C)C)cc(=O)n(Cc2cc3nccc(-c4cc(C#N)cc5c4N([C@H]4CN[C@](C)(CO)C4)CCO5)c3s2)c1=O` (stereo in doubt) [Example 219, 5-(2-((4-(dimethylamino)-3-ethyl-2,6-dioxo-2,3-dihydropyrimidin-1(6H)-yl)methyl)thieno[3,2-b]pyridin-7-yl)-4-((3R,5S)-5-(hydroxymethyl)-5-methylpyrrolidin-3-yl)-3,4-dihydro-2H-benzo[b][1,4]oxazine-7-carbonitrile]: the IC50 is less than 10 nM.

`N[C@@H]1CCN(C2CCOc3cc(Cl)cc(-c4ccnc5cc(CN6C(=O)CCC6=O)sc45)c32)C1` (stereo in doubt) [Example 230a, 1-((7-((S)-4-((R)-3-aminopyrrolidin-1-yl)-7-chlorochroman-5-yl)thieno[3,2-b]pyridin-2-yl)methyl)pyrrolidine-2,5-dione] had an IC50 of 10 to 100 nM.

As for `N[C@@H]1CCN(C2CCOc3cc(Cl)cc(-c4ccnc5cc(CN6C(=O)CCC6=O)sc45)c32)C1` (stereo in doubt) [Example 230b, 1-((7-((R)-4-((R)-3-aminopyrrolidin-1-yl)-7-chlorochroman-5-yl)thieno[3,2-b]pyridin-2-yl)methyl)pyrrolidine-2,5-dione], the IC50 is greater than 1000 nM.

Compound `O=C1CCC(=O)N1Cc1cc2nccc(-c3cc(Cl)cc4c3N(C3CNC3)CCC4)c2s1` [Example 1, 1-((7-(1-(azetidin-3-yl)-6-chloro-1,2,3,4-tetrahydroquinolin-8-yl)thieno[3,2-b]pyridin-2-yl)methyl)pyrrolidine-2,5-dione] came in with an IC50 of 10 to 100 nM.

Consider `CN1CC(N2CCCc3cc(Cl)cc(-c4ccnc5cc(CN6C(=O)CCC6=O)sc45)c32)C1` [Example 2, 1-((7-(6-chloro-1-(1-methylazetidin-3-yl)-1,2,3,4-tetrahydroquinolin-8-yl)thieno[3,2-b]pyridin-2-yl)methyl)pyrrolidine-2,5-dione], for which the IC50 lay within 10 to 100 nM.

The compound `O=C1CCC(=O)N1Cc1cc2nccc(-c3cc(Cl)cc4c3N(C3CN(C5CCC5)C3)CCC4)c2s1` [Example 3, 1-((7-(6-chloro-1-(1-cyclobutylazetidin-3-yl)-1,2,3,4-tetrahydroquinolin-8-yl)thieno[3,2-b]pyridin-2-yl)methyl)pyrrolidine-2,5-dione] registered an IC50 of 10 to 100 nM.

With `CCN1CC(N2CCCc3cc(Cl)cc(-c4ccnc5cc(CN6C(=O)CCC6=O)sc45)c32)C1` [Example 4, 1-((7-(6-chloro-1-(1-ethylazetidin-3-yl)-1,2,3,4-tetrahydroquinolin-8-yl)thieno[3,2-b]pyridin-2-yl)methyl)pyrrolidine-2,5-dione], the IC50 was in the range of 10 to 100 nM.

Take `O=C1CCC(=O)N1Cc1cc2nccc(-c3cc(Cl)cc4c3N(C3CN(C5CC5)C3)CCC4)c2s1` [Example 5, 1-((7-(6-chloro-1-(1-cyclopropylazetidin-3-yl)-1,2,3,4-tetrahydroquinolin-8-yl)thieno[3,2-b]pyridin-2-yl)methyl)pyrrolidine-2,5-dione]: the IC50 was in the range of 10 to 100 nM.

With `O=C1CCC(=O)N1Cc1cc2nccc(-c3cc(Cl)cc4c3N(C3CN(C5COC5)C3)CCC4)c2s1` [Example 6, 1-((7-(6-chloro-1-(1-(oxetan-3-yl)azetidin-3-yl)-1,2,3,4-tetrahydroquinolin-8-yl)thieno[3,2-b]pyridin-2-yl)methyl)pyrrolidine-2,5-dione], the IC50 lay within 10 to 100 nM.

For the compound `CNC(=O)N1CC(N2CCCc3cc(Cl)cc(-c4ccnc5cc(CN6C(=O)CCC6=O)sc45)c32)C1` [Example 7, 3-[6-chloro-8-[2-[(2,5-dioxopyrrolidin-1-yl)methyl]thieno[3,2-b]pyridin-7-yl]-3,4-dihydro-2H-quinolin-1-yl]-N-methyl-azetidine-1-carboxamide], the IC50 was in the range of 101 to 1000 nM.

Take `CC(=O)N1CC(N2CCCc3cc(Cl)cc(-c4ccnc5cc(CN6C(=O)CCC6=O)sc45)c32)C1` [Example 8, 1-((7-(1-(1-acetylazetidin-3-yl)-6-chloro-1,2,3,4-tetrahydroquinolin-8-yl)thieno[3,2-b]pyridin-2-yl)methyl)pyrrolidine-2,5-dione]: the IC50 is 101 to 1000 nM.

In the case of `O=C1CCC(=O)N1Cc1cc2nccc(-c3cc(Cl)cc4c3N(C3CN(CCO)C3)CCC4)c2s1` [Example 10, 1-[[7-[6-chloro-1-[1-(2-hydroxyethyl)azetidin-3-yl]-3,4-dihydro-2H-quinolin-8-yl]thieno[3,2-b]pyridin-2-yl]methyl]pyrrolidine-2,5-dione], the IC50 lay in the range of 10 to 100 nM.

Regarding `O=C1CCC(=O)N1Cc1cc2nccc(-c3cc(Cl)cc4c3N(C3CN(CC(F)F)C3)CCC4)c2s1` [Example 11, 1-((7-(6-chloro-1-(1-(2,2-difluoroethyl)azetidin-3-yl)-1,2,3,4-tetrahydroquinolin-8-yl)thieno[3,2-b]pyridin-2-yl)methyl)pyrrolidine-2,5-dione], the IC50 was in the range of 101 to 1000 nM.

In turn, `N#CC1(CN2CC(N3CCCc4cc(Cl)cc(-c5ccnc6cc(CN7C(=O)CCC7=O)sc56)c43)C2)CC1` [Example 12, 1-((3-(6-chloro-8-(2-((2,5-dioxopyrrolidin-1-yl)methyl)thieno[3,2-b]pyridin-7-yl)-3,4-dihydroquinolin-1(2H)-yl)azetidin-1-yl)methyl)cyclopropanecarbonitrile] displayed an IC50 of 101 to 1000 nM.

Turning to `O=C1C2CC2C(=O)N1Cc1cc2nccc(-c3cc(Cl)cc4c3N(C3CNC3)CCC4)c2s1` (centres unmarked) [Example 13, 3-((7-(1-(azetidin-3-yl)-6-chloro-1,2,3,4-tetrahydroquinolin-8-yl)thieno[3,2-b]pyridin-2-yl)methyl)-3-azabicyclo[3.1.0]hexane-2,4-dione], the IC50 was 10 to 100 nM.

Compound `CC1(C)C2C(=O)N(Cc3cc4nccc(-c5cc(Cl)cc6c5N(C5CNC5)CCC6)c4s3)C(=O)C21` (centres unmarked) [Example 14, 3-[[7-[1-(azetidin-3-yl)-6-chloro-3,4-dihydro-2H-quinolin-8-yl]thieno[3,2-b]pyridin-2-yl]methyl]-6,6-dimethyl-3-azabicyclo[3.1.0]hexane-2,4-dione] displayed an IC50 of 10 to 100 nM.

`O=c1cccnn1Cc1cc2nccc(-c3cc(Cl)cc4c3N(C3CNC3)CCC4)c2s1` [Example 16, 2-[[7-[1-(azetidin-3-yl)-6-chloro-3,4-dihydro-2H-quinolin-8-yl]thieno[3,2-b]pyridin-2-yl]methyl]pyridazin-3-one] registered an IC50 of 10 to 100 nM.

`Cc1ccc(=O)n(Cc2cc3nccc(-c4cc(Cl)cc5c4N(C4CNC4)CCC5)c3s2)n1` [Example 17, 2-[[7-[1-(azetidin-3-yl)-6-chloro-3,4-dihydro-2H-quinolin-8-yl]thieno[3,2-b]pyridin-2-yl]methyl]-6-methyl-pyridazin-3-one] came in with an IC50 of 10 to 100 nM.

For `Cc1ccnn(Cc2cc3nccc(-c4cc(Cl)cc5c4N(C4CNC4)CCC5)c3s2)c1=O` [Example 18, 2-[[7-[1-(azetidin-3-yl)-6-chloro-3,4-dihydro-2H-quinolin-8-yl]thieno[3,2-b]pyridin-2-yl]methyl]-4-methyl-pyridazin-3-one], the IC50 lay within 10 to 100 nM.
